Data: ChEMBL document CHEMBL1921757, “Small molecule probes of the receptor binding site in the Vibrio cholerae CAI-1 quorum sensing circuit” (Bioorg Med Chem, 2011)

Key:
Vibrio cholerae = experiment: Antibacterial activity against Vibrio cholerae MM920 assessed as growth inhibition after 4 hrs by spectrophotometry; assay type: organism-based; settings: in vivo
[1] = target: T1, CAI-1 autoinducer sensor kinase/phosphatase CqsS (Vibrio cholerae serotype O1 (strain ATCC 39315 / El Tor Inaba N16961)) (UniProt Q9KM66); experiment: Ratio of compound EC50 to (S)-CAI-1 EC50 for CqsS receptor in cqsA-deficient, luxQ-deficient Vibrio cholerae MM920 harboring cosmid pBB1 carrying Vibrio harveyi luxCDABE gene assessed as induction of quorum sensing regulated bioluminescence after 4 hrs by scintillation counting
T1 sequence (whole entry): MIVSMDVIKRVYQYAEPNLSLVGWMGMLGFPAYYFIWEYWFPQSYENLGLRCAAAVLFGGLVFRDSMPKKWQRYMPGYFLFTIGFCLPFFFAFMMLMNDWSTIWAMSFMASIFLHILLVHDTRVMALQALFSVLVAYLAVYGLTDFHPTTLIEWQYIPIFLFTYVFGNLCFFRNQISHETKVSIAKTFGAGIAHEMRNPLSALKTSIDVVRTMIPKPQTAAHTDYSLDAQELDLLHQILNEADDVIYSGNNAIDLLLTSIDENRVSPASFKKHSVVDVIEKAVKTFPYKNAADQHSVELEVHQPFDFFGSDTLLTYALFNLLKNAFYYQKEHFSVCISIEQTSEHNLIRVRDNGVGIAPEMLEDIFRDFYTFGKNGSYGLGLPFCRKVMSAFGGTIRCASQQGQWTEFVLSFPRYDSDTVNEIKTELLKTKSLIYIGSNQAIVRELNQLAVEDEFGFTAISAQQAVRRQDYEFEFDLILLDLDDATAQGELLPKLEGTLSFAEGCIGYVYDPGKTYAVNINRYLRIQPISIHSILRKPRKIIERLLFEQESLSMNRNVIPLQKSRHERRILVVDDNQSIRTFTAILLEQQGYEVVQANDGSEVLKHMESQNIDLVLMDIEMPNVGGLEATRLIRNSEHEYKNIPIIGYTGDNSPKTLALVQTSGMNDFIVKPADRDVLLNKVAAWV

[2] = target: T2, CAI-1 autoinducer sensor kinase/phosphatase CqsS (Vibrio cholerae serotype O1 (strain ATCC 39315 / El Tor Inaba N16961), UniProt Q9KM66); experiment: Agonist activity at CqsS receptor in cqsA-deficient, luxQ-deficient Vibrio cholerae MM920 harboring cosmid pBB1 carrying Vibrio harveyi luxCDABE gene assessed as induction of quorum sensing regulated bioluminescence after 4 hrs by scintillation counting; assay type: functional
T2 sequence (Q9KM66 whole entry): T1 sequence (whole entry)

[3] = target: T2, CAI-1 autoinducer sensor kinase/phosphatase CqsS; experiment: Antagonist activity at CqsS receptor in Vibrio cholerae MM920 assessed as inhibition of quorum sensing regulated CAI-1 induced bioluminescence after 4 hrs by scintillation counting; assay type: functional
[4] = target: T1, CAI-1 autoinducer sensor kinase/phosphatase CqsS (Vibrio cholerae serotype O1 (strain ATCC 39315 / El Tor Inaba N16961)); experiment: Antagonist activity at CqsS receptor in Vibrio cholerae MM920 assessed as inhibition of quorum sensing regulated CAI-1 induced bioluminescence after 4 hrs by scintillation counting relative to Ph-CAI-1; assay type: functional
[5] = target: T1, CAI-1 autoinducer sensor kinase/phosphatase CqsS (Vibrio cholerae serotype O1 (strain ATCC 39315 / El Tor Inaba N16961)); experiment: Ratio of compound IC50 to Ph-CAI-1 IC50 for CqsS receptor in Vibrio cholerae MM920 assessed as inhibition of quorum sensing regulated CAI-1 induced bioluminescence after 4 hrs by scintillation counting

Row | SMILES | growth inhibition (GI) (Vibrio cholerae) | Ratio EC50 [1] | EC50 [2] [µM] | IC50 [3] [µM] | Imax [4] [%] | Ratio IC50 [5]
1 | CCCCCCCCCC(=O)C(O)C(C)(C)C (racemic) | Not Active | > 200 | > 50 |  |  | 
2 | CCCCCCCCCC(=O)C(O)c1ccccc1 (racemic) | Not Active |  |  | 55 | 100 | 1
3 | CCCCCCCCCC(=O)C(O)c1ccccc1C (racemic) | Not Active |  |  | > 500 |  | > 9
4 | CCCCCCCCCC(=O)C(O)c1cccc(C)c1 (racemic) | Not Active |  |  | 46 | 58 | 0.91
5 | CCCCCCCCCC(=O)C(O)c1ccc(C)cc1 (racemic) | Not Active |  |  | 114 | 99 | 2.2
6 | CCCCCCCCCC(=O)C(O)c1ccc(C)c(C)c1 (racemic) | Not Active |  |  | > 500 |  | > 9
7 | CCCCCCCCCC(=O)C(O)c1ccccc1O (racemic) | Not Active |  |  | 172 | 144 | 3.4
8 | CCCCCCCCCC(=O)C(O)c1cccc(O)c1 (racemic) | Not Active |  |  | 36 | 123 | 0.71
9 | CCCCCCCCCC(=O)C(O)c1ccc(O)cc1 (racemic) | Not Active |  |  | 78 | 119 | 1.5
10 | CCCCCCCCCC(=O)C(O)c1ccc(O)c(O)c1 (racemic) | Not Active |  |  | 174 | 122 | 3.4
11 | CCCCCCCCCC(=O)C(O)c1ccccc1OC (racemic) | Not Active |  |  | > 500 |  | > 9
12 | CCCCCCCCCC(=O)C(O)c1cccc(OC)c1 (racemic) | Not Active |  |  | > 500 |  | > 9
13 | CCCCCCCCCC(=O)C(O)c1ccc(OC)cc1 (racemic) | Not Active |  |  | > 500 |  | > 9
14 | CCCCCCCCCC(=O)C(O)c1ccccc1F (racemic) | Not Active |  |  | 74 | 105 | 1.5
15 | CCCCCCCCCC(=O)C(O)c1cccc(F)c1 (racemic) | Not Active |  |  | 178 | 112 | 3.5
16 | CCCCCCCCCC(=O)C(O)c1ccc(F)cc1 (racemic) | Not Active |  |  | 137 | 125 | 2.7
17 | CCCCCCCCCC(=O)C(O)c1cc(F)ccc1F (racemic) | Not Active |  |  | 68 | 48 | 1.3
18 | CCCCCCCCCC(=O)C(O)c1ccccc1Cl (racemic) | Not Active |  |  | > 500 |  | > 9
19 | CCCCCCCCCC(=O)C(O)c1cccc(Cl)c1 (racemic) | Not Active |  |  | > 500 |  | > 9
20 | CCCCCCCCCC(=O)C(O)c1ccc(Cl)cc1 (racemic) | Not Active |  |  | > 500 |  | > 9
21 | CCCCCCCCCC(=O)C(O)c1ccccc1Br (racemic) | Not Active |  |  | > 500 |  | > 9
22 | CCCCCCCCCC(=O)C(O)c1cccc(Br)c1 (racemic) | Not Active |  |  | > 500 |  | > 9
23 | CCCCCCCCCC(=O)C(O)c1ccc(Br)cc1 (racemic) | Not Active |  |  | 185 | 71 | 2.6
24 | CCCCCCCCCC(=O)C(O)Cc1ccccc1 (racemic) | Not Active |  |  | 136 | 124 | 1.9
25 | CCCCCCCCCC(=O)C(N)c1ccccc1.Cl (racemic) | Not Active |  |  | > 500 |  | > 9
